The record followed here is PubChem BioAssay AID248 (DTP/NCI, 2004).

Toxic doses and inconclusive results are not listed.

For this experiment, the system named is L1210 leukemia ip in BDF1 mice, survival T/C. As to the kind of experiment: NCI In Vivo Anticancer Drug Screen. Data for tumor model L1210 Leukemia (intraperitoneal) in B6D2F1 (BDF1) mice. The settings on record: endpoint: mean survival time, higher = longer survival. The essentials:
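Each compound was tested against a transplantable tumor grown in mice. The endpoint was survival, with treated animals benchmarked against vehicle controls as a simple ratio.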

Where [1] appears, read: dose: 100.0 mg/kg/injection, schedule: Q04DX003 (ip), vehicle: saline.
Setting [2] is: dose: 200.0 mg/kg/injection, schedule: Q04DX003 (ip), vehicle: saline.
Setting [3] is: dose: 300.0 mg/kg/injection, schedule: Q04DX003 (ip), vehicle: saline.
[4] abbreviates: dose: 100.0 mg/kg/injection, schedule: Q04DX003 (ip), vehicle: Klucel (hydroxypropylcellulose) (HPC).
Setting [5] is: dose: 200.0 mg/kg/injection, schedule: Q04DX003 (ip), vehicle: Klucel (hydroxypropylcellulose) (HPC).
Where [6] appears, read: dose: 400.0 mg/kg/injection, schedule: Q04DX003 (ip), vehicle: Klucel (hydroxypropylcellulose) (HPC).
Setting [7] is: dose: 100.0 mg/kg/injection, schedule: Q01DX009 (ip), vehicle: Klucel (hydroxypropylcellulose) (HPC).
[8] abbreviates: dose: 50.0 mg/kg/injection, schedule: Q01DX009 (ip), vehicle: saline with Tween-80.
The mark [9] stands for this setting: dose: 100.0 mg/kg/injection, schedule: Q04DX002 (ip), vehicle: saline.
The mark [10] stands for this setting: dose: 25.0 mg/kg/injection, schedule: Q01DX009 (ip), vehicle: Klucel (hydroxypropylcellulose) (HPC).

`O=C1NC(c2ccccc2)(c2ccccc2)CN1CCO`: the T/C was 95 % of control (dose: 100.0 mg/kg/injection, schedule: Q01DX001 (ip), vehicle: saline with Tween-80); 95 % of control (dose: 200.0 mg/kg/injection, schedule: Q01DX001 (ip), vehicle: saline with Tween-80); 93 % of control (dose: 400.0 mg/kg/injection, schedule: Q01DX001 (ip), vehicle: saline with Tween-80).
For the molecule `CCC(=O)OCNC(=O)NNC(=O)CCCC(=O)NNC(=O)NCOC(=O)CC`, the T/C runs as follows: (dose: 50.0 mg/kg/injection, schedule: Q01DX001 (ip), vehicle: saline) 102 % of control; (dose: 100.0 mg/kg/injection, schedule: Q01DX001 (ip), vehicle: saline) 102 % of control; (dose: 200.0 mg/kg/injection, schedule: Q01DX001 (ip), vehicle: saline) 106 % of control; (dose: 400.0 mg/kg/injection, schedule: Q01DX001 (ip), vehicle: saline) 100 % of control.
For the molecule `CN(C)C(=O)NNC(=O)N(C)C`, the T/C runs as follows: (dose: 100.0 mg/kg/injection, schedule: Q01DX009 (ip), vehicle: saline) 103 % of control; under setting [1], 94 % of control; (dose: 200.0 mg/kg/injection, schedule: Q01DX009 (ip), vehicle: saline) 95 % of control; under setting [2], 96 % of control; (dose: 400.0 mg/kg/injection, schedule: Q01DX009 (ip), vehicle: saline) 95 % of control; (dose: 400.0 mg/kg/injection, schedule: Q04DX003 (ip), vehicle: saline) 100 % of control.
With `Cc1c2cnccc2c(C)c2c1c1ccccc1n2CCN(C)C`, the T/C was 105 % of control (dose: 12.5 mg/kg/injection, schedule: Q04DX003 (ip), vehicle: saline); 97 % of control (dose: 25.0 mg/kg/injection, schedule: Q04DX003 (ip), vehicle: saline); 102 % of control (dose: 50.0 mg/kg/injection, schedule: Q04DX003 (ip), vehicle: saline); 113 % of control under setting [3].
Take `CCCCC(C)C(C#N)(NC(C)=O)C(=O)OCC` (centres undefined): the T/C is, setting by setting: (dose: 75.0 mg/kg/injection, schedule: Q04DX003 (ip), vehicle: saline) 109 % of control; (dose: 150.0 mg/kg/injection, schedule: Q04DX003 (ip), vehicle: saline) 98 % of control; under setting [3], 91 % of control.
For the molecule `Cc1ccc(S(=O)(=O)N(C)c2ccc(CC(=O)O)cc2)cc1`, the T/C is, setting by setting: under setting [4], 97 % of control; under setting [5], 95 % of control; under setting [6], 95 % of control.
For `CN(N=O)C(=O)NCCCCNC(=O)N(C)N=O`, the T/C reads like this: (dose: 6.25 mg/kg/injection, schedule: Q01DX Z (ip), vehicle: carboxymethylcellulose (CMC)) 107 % of control; (dose: 12.5 mg/kg/injection, schedule: Q01DX Z (ip), vehicle: carboxymethylcellulose (CMC)) 112 % of control; (dose: 25.0 mg/kg/injection, schedule: Q01DX Z (ip), vehicle: carboxymethylcellulose (CMC)) 111 % of control; (dose: 50.0 mg/kg/injection, schedule: Q01DX Z (ip), vehicle: carboxymethylcellulose (CMC)) 108 % of control; (dose: 200.0 mg/kg/injection, schedule: Q01DX Z (ip), vehicle: carboxymethylcellulose (CMC)) 163 % of control.
`CC1CCS(=O)(=O)CC1.[Cl][Hg][Cl]`: the T/C was 95 % of control (dose: 0.31 mg/kg/injection, schedule: Q01DX009 (ip), vehicle: saline); 86 % of control (dose: 0.62 mg/kg/injection, schedule: Q01DX009 (ip), vehicle: saline); 91 % of control (dose: 1.25 mg/kg/injection, schedule: Q01DX009 (ip), vehicle: saline).
As to `O=C1c2cccc3cccc(c23)C1(Br)Br`, the T/C is, setting by setting: (dose: 75.0 mg/kg/injection, schedule: Q01DX001 (ip), vehicle: other) 101 % of control; (dose: 150.0 mg/kg/injection, schedule: Q01DX001 (ip), vehicle: other) 104 % of control.
Turning to `O=C(O)COc1nc2ccccc2s1`, the T/C by setting is: under setting [7], 95 % of control; (dose: 100.0 mg/kg/injection, schedule: Q04DX003 (ip), vehicle: alcohol) 105 % of control; (dose: 200.0 mg/kg/injection, schedule: Q01DX009 (ip), vehicle: Klucel (hydroxypropylcellulose) (HPC)) 96 % of control; (dose: 200.0 mg/kg/injection, schedule: Q04DX003 (ip), vehicle: alcohol) 98 % of control; (dose: 400.0 mg/kg/injection, schedule: Q01DX009 (ip), vehicle: Klucel (hydroxypropylcellulose) (HPC)) 88 % of control; (dose: 400.0 mg/kg/injection, schedule: Q04DX003 (ip), vehicle: alcohol) 94 % of control.
Turning to `C=C(C)C1CCC(C)CC1O` (centres undefined), the T/C is, setting by setting: under setting [8], 111 % of control; (dose: 100.0 mg/kg/injection, schedule: Q01DX009 (ip), vehicle: saline with Tween-80) 97 % of control; (dose: 200.0 mg/kg/injection, schedule: Q01DX009 (ip), vehicle: saline with Tween-80) 108 % of control.
Turning to `O=C(O)C(=O)c1ccccc1`, the T/C is 92 % of control under setting [1] and 91 % of control under setting [2].
Consider `CCOC(=O)NOP(=O)(N1CC1)N1CC1`, for which, under setting [9], the T/C was 153 % of control.
Consider `NP1(N)=NP(N)(N)=NP(N)(N)=N1`, for which the T/C under setting [9] was 90 % of control; the T/C (dose: 200.0 mg/kg/injection, schedule: Q04DX002 (ip), vehicle: saline) was 93 % of control; the T/C (dose: 400.0 mg/kg/injection, schedule: Q04DX002 (ip), vehicle: saline) is 97 % of control.
Consider `CNC(=O)OCC1=CC(=O)C(OC)=CC1=O`, for which the T/C was 91 % of control (dose: 0.37 mg/kg/injection, schedule: Q01DX009 (ip), vehicle: Klucel (hydroxypropylcellulose) (HPC)); 98 % of control (dose: 0.75 mg/kg/injection, schedule: Q01DX009 (ip), vehicle: Klucel (hydroxypropylcellulose) (HPC)); 92 % of control (dose: 12.5 mg/kg/injection, schedule: Q04DX003 (ip), vehicle: Klucel (hydroxypropylcellulose) (HPC)); 88 % of control under setting [10]; 103 % of control (dose: 25.0 mg/kg/injection, schedule: Q04DX003 (ip), vehicle: Klucel (hydroxypropylcellulose) (HPC)).
In the case of `O=C(CCl)Nc1ccc2c(c1)-n1cccc1C2=O`, the T/C runs as follows: under setting [10], 89 % of control; (dose: 50.0 mg/kg/injection, schedule: Q01DX009 (ip), vehicle: Klucel (hydroxypropylcellulose) (HPC)) 91 % of control; under setting [7], 86 % of control; under setting [4], 93 % of control; under setting [5], 96 % of control; under setting [6], 100 % of control.
Regarding `CCCCS(=O)C1(CCC)OC1(c1ccccc1)c1ccccc1` (centres undefined), the T/C reads like this: (dose: 100.0 mg/kg/injection, schedule: Q03DX002 (ip), vehicle: other) 121 % of control; (dose: 200.0 mg/kg/injection, schedule: Q03DX002 (ip), vehicle: other) 102 % of control; (dose: 400.0 mg/kg/injection, schedule: Q03DX002 (ip), vehicle: other) 96 % of control.
Take `CCCCCCCCCCCCCCC(F)C(=O)OCC1OC(CO)(OC2OC(CO)C(O)C(O)C2O)C(O)C1O` (centres undefined): the T/C (dose: 25.0 mg/kg/injection, schedule: Q01DX009 (ip), vehicle: saline with Tween-80) is 98 % of control; the T/C under setting [8] is 100 % of control; the T/C (dose: 100.0 mg/kg/injection, schedule: Q04DX003 (ip), vehicle: saline with Tween-80) is 107 % of control.
In the case of `COC(=O)N1C2C=CC(C2)N1C(=O)OC`, the T/C reads like this: (dose: 50.0 mg/kg/injection, schedule: Q01DX009 (ip), vehicle: DMSO) 96 % of control; (dose: 100.0 mg/kg/injection, schedule: Q01DX009 (ip), vehicle: DMSO) 93 % of control; (dose: 100.0 mg/kg/injection, schedule: Q04DX003 (ip), vehicle: DMSO) 97 % of control; (dose: 200.0 mg/kg/injection, schedule: Q04DX003 (ip), vehicle: DMSO) 95 % of control.
For the molecule `Cc1cc2nc3c(=O)[nH]c(=O)nc-3n(CCN(CCCl)CCCl)c2cc1C`, the T/C (dose: 42.0 mg/kg/injection, schedule: Q01DX015 (ip), vehicle: carboxymethylcellulose (CMC)) is 115 % of control; the T/C (dose: 72.0 mg/kg/injection, schedule: Q01DX015 (ip), vehicle: carboxymethylcellulose (CMC)) was 96 % of control; the T/C (dose: 120.0 mg/kg/injection, schedule: Q01DX015 (ip), vehicle: carboxymethylcellulose (CMC)) was 86 % of control; the T/C (dose: 400.0 mg/kg/injection, schedule: Q01DX001 (ip), vehicle: carboxymethylcellulose (CMC)) was 152 % of control; the T/C (dose: 600.0 mg/kg/injection, schedule: Q01DX001 (ip), vehicle: carboxymethylcellulose (CMC)) is 103 % of control.
